Experimental data as given in US8362000B2, “Azetidinyl diamides as monoacylglycerol lipase inhibitors” (Janssen Pharmaceutica NV, priority 2009, dated 2013).
Like-named read-outs stand apart in the source and are kept apart here.

Legend:
[1] = target: T1, MGL (Rattus norvegicus, UniProt Q8R431); test: 2-AG accumulation assay in rat brain homogenate; type: biochemical; conditions: rat brain homogenate, 2-AG accumulation as percent of vehicle; for 2-AG accumulation, % of vehicle control at 10 µM: compound 10 μM, read-out: Rat Brain 2AG % VehCntrl (%) @ 10 μM; for 2-AG accumulation, % of vehicle control at 1 µM: compound 1 μM, read-out: Rat Brain 2AG % VehCntrl (%) @ 1 μM
T1 construct: one g rat brain was homogenized using a Polytron homogenizer; from tissue; host or cells: rat brain homogenate
T1 sequence (Q8R431 1-303): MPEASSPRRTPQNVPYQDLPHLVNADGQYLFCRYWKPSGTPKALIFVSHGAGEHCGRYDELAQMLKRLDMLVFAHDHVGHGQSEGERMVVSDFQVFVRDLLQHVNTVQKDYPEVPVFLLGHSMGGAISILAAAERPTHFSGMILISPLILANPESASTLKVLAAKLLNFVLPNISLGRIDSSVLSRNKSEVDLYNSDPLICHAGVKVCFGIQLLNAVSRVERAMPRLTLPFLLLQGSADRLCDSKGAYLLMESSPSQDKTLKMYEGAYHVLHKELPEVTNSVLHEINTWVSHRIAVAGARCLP

[2] = target: T2, mutant MGL (Homo sapiens, UniProt Q99685, L169S/L176S); test: MGL ThermoFluor assay - mutant; type: binding; conditions: read-out: MGL mutant ThermoFluor Kd
T2 sequence (Q99685 1-303 L169S/L176S): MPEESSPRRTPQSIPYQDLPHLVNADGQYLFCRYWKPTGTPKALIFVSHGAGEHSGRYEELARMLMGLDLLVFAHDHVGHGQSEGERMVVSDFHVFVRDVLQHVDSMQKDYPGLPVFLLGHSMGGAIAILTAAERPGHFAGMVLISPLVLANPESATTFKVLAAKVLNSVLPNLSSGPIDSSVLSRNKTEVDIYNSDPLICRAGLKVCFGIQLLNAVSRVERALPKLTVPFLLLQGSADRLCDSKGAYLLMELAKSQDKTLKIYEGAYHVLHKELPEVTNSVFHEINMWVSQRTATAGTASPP

[3] = ThermoFluor concentration-response
[4] = ThermoFluor thermal stability binding assay

| Structure (SMILES) | 2-AG accumulation, % of vehicle control at 10 µM [1] [%] | Kd [2, 3] [nM] | 2-AG accumulation, % of vehicle control at 1 µM [1] [%] | Kd [2, 4] [nM] |
| --- | --- | --- | --- | --- |
| O=C(c1ccc(-c2ccccc2)cc1)N1CC(N2CCN(C(=O)c3ccc(Br)o3)CC2)C1 [Cpd 12, 1-[1-(Biphenyl-4-ylcarbonyl)azetidin-3-yl]-4-[(5-bromofuran-2-yl)carbonyl]piperazine] | 448 | 14.3 | – | – |
| CS(=O)(=O)N1CCCc2cc(C(=O)N3CC(N4CCN(C(=O)c5nccs5)CC4)C3)ccc21 [Cpd 361] | – | – | 186 | 144 |
| O=C(c1ccc(OCc2cccc(Cl)c2)c(Cl)c1)N1CC(N2CCN(C(=O)c3nccs3)CC2)C1 [Cpd 401, 1-[1-({3-Chloro-4-[(3-chlorobenzyl)oxy]phenyl}carbon-yl)azetidin-3-yl]-4-(1,3-thiazol-2-ylcarbonyl)piperazine] | 762 | – | – | 1.67 |
| O=C(c1ccccc1)N1CCN(C2CN(C(=O)c3ccc(-c4ccc(Cl)c(C(F)(F)F)c4)cc3Cl)C2)CC1 [Cpd 268, 1-(1-{[3,4′-Dichloro-3′-(trifluoromethyl)biphenyl-4-yl]carbonyl}azetidin-3-yl)-4-(phenylcarbonyl)piperazine] | – | – | 110 | 25 |
| O=C(c1cc2cccc(C(F)(F)F)c2s1)N1CC(N2CCN(C(=O)c3nccs3)CC2)C1 [Cpd 328] | – | – | 378 | 81.6 |
| O=C(c1ccc(COc2cccc(Cl)c2)cc1)N1CC(N2CCN(C(=O)c3nccs3)CC2)C1 [Cpd 453, 1-[1-({4-[(3-Chlorophenoxy)methyl]phenyl}carbonyl)azetidin-3-yl]-4-(1,3-thiazol-2-ylcarbonyl)piperazine] | – | 12 | 917 | – |
| O=C(c1ccccc1)N1CCN(C2CN(C(=O)c3ccc(-c4ccccc4)cc3F)C2)CC1 [Cpd 614] | – | 66 | 87 | – |
| O=C(c1ccc(OCc2cccc(Br)n2)cc1)N1CC(N2CCN(C(=O)c3cscn3)CC2)C1 [Cpd 987] | – | – | 320 | 327 |
| Cc1cc(C(=O)N2CC(N3CCN(C(=O)c4ccccc4)CC3)C2)ccc1-c1ccc(Cl)c(C(F)(F)F)c1 [Cpd 260, 1-(1-{[4′-Chloro-2-methyl-3′-(trifluoromethyl)biphenyl-4-yl]carbonyl}azetidin-3-yl)-4-(phenylcarbonyl)piperazine] | – | – | 140 | 20 |
| O=C(c1cscn1)N1CCN(C2CN(C(=O)c3cc4cccc(C(F)(F)F)c4s3)C2)CC1 [Cpd 332, 1-(1,3-Thiazol-4-ylcarbonyl)-4-(1-{[7-(trifluoromethyl)-1-benzothiophen-2-yl]carbonyl}azetidin-3-yl)piperazine] | – | – | 182 | 109 |
| COc1cc(C(=O)N2CC(N3CCN(C(=O)c4ccccc4)CC3)C2)ccc1-c1ccccc1 [Cpd 615] | – | 97 | 123 | – |
| O=C(c1ccc(-c2ccccc2)cc1)N1CC(N2CCN(C(=O)c3ccns3)CC2)C1 [Cpd 310, 1-[1-(Biphenyl-4-ylcarbonyl)azetidin-3-yl]-4-(isothiazol-5-ylcarbonyl)piperazine] | – | – | 141 | 250 |
| O=C(c1cscn1)N1CCN(C2CN(C(=O)c3cc4cc(C(F)(F)F)ccc4s3)C2)CC1 [Cpd 908] | – | – | 217 | 93 |
| O=C(c1ccc2c(c1)CCCN2S(=O)(=O)c1cccc(F)c1)N1CC(N2CCN(C(=O)c3nccs3)CC2)C1 [Cpd 368, 1-[(3-Fluorophenyl)sulfonyl]-6-({3-[4-(1,3-thiazol-2-ylcarbonyl)piperazin-1-yl]azetidin-1-yl}carbonyl)-1,2,3,4-tetrahydroquinoline] | – | – | 434 | 55.1 |
| O=C(c1ccccc1)N1CCN(C2CN(C(=O)c3ccc(OCc4cccc(Cl)c4)c(Cl)c3)C2)CC1 [Cpd 397, 1-[1-({3-Chloro-4-[(3-chlorobenzyl)oxy]phenyl}carbonyl)azetidin-3-yl]-4-(phenylcarbonyl)piperazine] | 243 | – | – | 33.3 |
| O=C(c1ccc(-c2ccc(F)cc2F)cc1)N1CC(N2CCN(C(=O)c3cscn3)CC2)C1 [Cpd 226, 1-{1-[(2′,4′-Difluorobiphenyl-4-yl)carbonyl]azetidin-3-yl}-4-(1,3-thiazol-4-ylcarbonyl)piperazine] | 652 | – | – | 20 |
| Cc1nc(-c2ccc(Cl)cc2)sc1C(=O)N1CC(N2CCN(C(=O)c3cscn3)CC2)C1 [Cpd 1384] | – | – | 313 | 61 |
| O=C(c1ccc2c(ccn2-c2ncc(F)cn2)c1)N1CC(N2CCN(C(=O)c3nccs3)CC2)C1 [Cpd 1147, 1-(5-Fluoropyrimidin-2-yl)-5-({3-[4-(1,3-thiazol-2-ylcarbonyl)piperazin-1-yl]azetidin-1-yl}carbonyl)-1H-indole] | – | 3 | 892 | – |
| O=C(c1ccc(-c2ccc(Cl)cc2)cc1)N1CC(N2CCN(C(=O)c3nccs3)CC2)C1 [Cpd 163, 1-{1-[(4′-Chlorobiphenyl-4-yl)carbonyl]azetidin-3-yl}-4-(1,3-thiazol-2-ylcarbonyl)piperazine] | 923 | 3.45 | – | – |
| O=C(c1ccc(Oc2ccc(Cl)c(Cl)c2)cc1)N1CC(N2CCN(C(=O)c3nccs3)CC2)C1 [Cpd 423, 1-(1-{[4-(3,4-Dichlorophenoxy)phenyl]carbonyl}azetidin-3-yl)-4-(1,3-thiazol-2-ylcarbonyl)piperazine] | – | 6.9 | 529 | – |
| [2H]c1c([2H])c([2H])c(C(=O)N2CCN(C3CN(C(=O)c4ccc(-c5cccc(C(F)(F)F)c5)cc4)C3)CC2)c([2H])c1[2H] [Cpd 186-A] | – | – | 149 | 16 |
| O=C(c1ccccc1)N1CCN(C2CN(C(=O)c3ccc(OCc4ccccn4)c(Cl)c3)C2)CC1 [Cpd 406] | – | – | 99 | 932 |
| O=C(/C=C/c1ccc(SC(F)(F)F)cc1)N1CC(N2CCN(C(=O)c3cscn3)CC2)C1 [Cpd 648] | – | 146 | 126 | – |
| O=C(c1cscn1)N1CCN(C2CN(C(=O)c3sc4cc(F)ccc4c3Cl)C2)CC1 [Cpd 929] | – | – | 301 | 20 |
| O=C(c1ccc(SCc2cccnc2)cc1)N1CC(N2CCN(C(=O)c3nccs3)CC2)C1 [Cpd 416] | – | 160 | 228 | – |
| O=C(c1nccs1)N1CCN(C2CN(C(=O)c3sc4cc(F)ccc4c3Cl)C2)CC1 [Cpd 930] | – | – | 807 | 5 |
| O=C(c1ccc2c(c1)CCCN2S(=O)(=O)c1ccccc1)N1CC(N2CCN(C(=O)c3nccs3)CC2)C1 [Cpd 366, 1-(Phenylsulfonyl)-6-({3-[4-(1,3-thiazol-2-ylcarbonyl)piperazin-1-yl]azetidin-1-yl}carbonyl)-1,2,3,4-tetrahydroquinoline] | – | – | 432 | 35.3 |
| Cc1nc(-c2cccc(Cl)c2)sc1C(=O)N1CC(N2CCN(C(=O)c3cscn3)CC2)C1 [Cpd 1381] | – | – | 604 | 83 |
